This is an account of results in paper PMC3975428, “Dimers of G-Protein Coupled Receptors as Versatile Storage and Response Units” (International Journal of Molecular Sciences, 2014).

No end group written: not given here.

B1: NPY(22–36) (peptide, UniProt P01303 50-64, looked up)
peptide: SALRHYINLITRQRY
notes: neuropeptide Y, residues 22-36; also called neuropeptide Y(22–36)
B2: human neuropeptide Y Y2 receptor expressed in CHO cells (receptor, UniProt P49146 1-381, looked up)
chain: MGPIGAEADENQTVEEMKVEQYGPQTTPRGELVPDPEPELIDSTKLIEVQVVLILAYCSIILLGVIGNSLVIHVVIKFKSMRTVTNFFIANLAVADLLVNTLCLPFTLTYTLMGEWKMGPVLCHLVPYAQGLAVQVSTITLTVIALDRHRCIVYHLESKISKRISFLIIGLAWGISALLASPLAIFREYSLIEIIPDFEIVACTEKWPGEEKSIYGTVYSLSSLLILYVLPLGIISFSYTRIWSKLKNHVSPGAANDHYHQRRQKTTKMLVCVVVVFAVSWLPLHAFQLAVDIDSQVLDLKEYKLIFTVFHIIAMCSTFANPLLYGWMNSNYRKAFLSAFRCEQRLDAIHSEVSVTFKAKKNLEVRKNSGPNDSFTEATNV
notes: neuropeptide Y receptor type 2 (Y2), human cDNA in pcDNA 3.1+; Assayed in particulates (membranes) of the cells and in digitonin/cholate lysates of them; also called hY2 receptor; CHO-Y2; source: CHO-K1, stably expressed (cDNA in pcDNA 3.1+), postnuclear particulates, solubilised with digitonin and cholate

Data set [1] has as its system 180 kDa heteropentamer (Y2 receptor dimer, G-protein trimer). Nature of the data set: Nucleotide labeling / conversion of 180 kDa heteropentamer to 90 kDa Gi3α-receptor monomer. Type of data set: biochemical. Conditions: 1–5 mM Mg^2+, micromolar GDP or GγS. The method, then: The receptors were labeled for 30 min at 25 °C in respective particulates (50 μg protein/assay), employing not more than 50 pM [^125I]-labeled agonist peptides (as stated in individual experiments). Higher molar inputs of agonist peptides would produce significant Gα activation within short exposures (e.g., [24, 53]). The basal assay buffer contained 0.2% proteinase-free bovine serum albumin, 20 mM hepes.NaOH (pH 7.4), 1 mM diisopropylfluorophosphate, 0.04% bacitracin, and 10 μg/mL each of proteinase inhibitors aprotinin, bestatin, chymostatin, leupeptin and pepstatin. Depending on experiment design, this was supplemented by 3 mM CaCl2 and 1 mM MgCl2, (buffer A) or by 1 mM Na EDTA, pH 7.4 (buffer B). The nucleotide site labeling at 200 pM [^35S]GγS was for 30 min at 28 °C after pre-activation for 30 min at 28 °C at 3 μM GDP in the basal buffer with 50 μM EDTA, 100 mM NaCl and 4 mM MgCl2, and without CaCl2 (buffer C). All subsequent operations were carried out at 0–5 °C. The assays were terminated by sedimentation for 10 min at 30,000× gmax, followed by surface wash of the pellets.
Rabbit kidney postmitochondrial particulates, rabbit piriform cortex and hypothalamic crude synaptosomes and CHO cell postnuclear particulates were prepared as described previously. After solubilization of particulates at 10 mM each of digitonin and sodium cholate in buffer A or B, the lysates were spun for 10 min at 1000× g to remove debris, and the supernatants sedimented for periods indicated in figure captions at 218,000× gmax through linear 5%–20% sucrose gradients (10 mL, made in buffer A). The gradients were divided by bottom dripping in 23 fractions of 0.45 mL. The sedimentation positions were calibrated with [^125I]-labeled bovine γ-globulin (158 kDa), human iron-saturated transferrin (75 kDa) and ovalbumin (44 kDa), and with colorized myosin (211 kDa), producing a linear relation of migration to molecular weight (R^2 > 0.99). […]

In data set [2] the test system is 180 kDa heteropentamer and 90 kDa monomer-Gi α of Y2 receptor. Kind of data set: Stability of agonist binding of 180 kDa and 90 kDa Y2 complexes to reagents. In kind it is biochemical, rabbit. Conditions: for sensitivity of 180 kDa labeled material to K^+: 0.3 M K^+ (as KCl or KI). From the text:
Figure 6. Stability and affinity of agonist binding differs greatly for heteropentamer and monomer forms of the rabbit kidney Y2 receptor. (A) Y2 agonist attached to 180 kDa heteropentamer is recovered completely by 10% polyethyleneglycol (PEG) at 0.3 M K^+ (The data are averages of six gradients, ±1 S.E.).
The stability and affinity of agonist association with CHO-Y2 receptors could also be analyzed at the level of dimers and monomers by extraction and precipitation procedures coupled to competition binding assays (Figure 6).
The pellets were then counted in a scintillation counter.
(§1) Rabbit kidney postmitochondrial particulates, rabbit piriform cortex and hypothalamic crude synaptosomes and CHO cell postnuclear particulates were prepared as described previously. After solubilization of particulates at 10 mM each of digitonin and sodium cholate in buffer A or B, the lysates were spun for 10 min at 1000× g to remove debris, and the supernatants sedimented for periods indicated in figure captions at 218,000× gmax through linear 5%–20% sucrose gradients (10 mL, made in buffer A). The gradients were divided by bottom dripping in 23 fractions of 0.45 mL. The sedimentation positions were calibrated with [^125I]-labeled bovine γ-globulin (158 kDa), human iron-saturated transferrin (75 kDa) and ovalbumin (44 kDa), and with colorized myosin (211 kDa), producing a linear relation of migration to molecular weight (R^2 > 0.99).

For data set [3], the system named is aggregated Y2 receptor material (rabbit kidney and CHO-Y2 particulates). Nature of the data set: Release of aggregated Y2 receptor material (bottom of 5%–20% gradients). The note with it: 10 μM, preliminary experiment. In kind it is biochemical. The protocol: More than 30% of the Y2 binding in rabbit kidney postmitochondrial particulates, and more than 20% in the CHO-Y2 postnuclear particulates sediments to the bottom of 5%–20% sucrose gradients over 18 h at 218,000× gmax, corresponding to weight in excess of 1000 kDa. A large part of this material sediments at 30,000× gmax over 10 min, and could be considered as aggregated. […] This preliminary experiment points to potential of such procedures in quantitation of effector-associated receptors at the level of dimers and monomers. There also is a promise of gaining more insight on the size and significance of receptor oligomers incorporating more than two receptor monomers.
as §1

Data set [4] concerns Y2 receptor aggregates (rabbit kidney). Kind of data set: Y2 receptor aggregates, sedimentation after treatment, rabbit kidney particulates. The note with it: 15 min at 24 °C. Type of data set: biochemical. The protocol:
(§2) Figure 5. […] Particulates from rabbit kidney (A) and anterior hypothalamus (B) were incubated with 20 μM GγS or 10 μM U73122 for 15 min at 24 °C, sedimented, resuspended, labeled with 50 pM [^125I]hPYY(3–36) for 15 min at 24 °C, resedimented, lysed at 10 mM each digitonin and cholate and sedimented through a 10%–30% linear sucrose gradient for 6 h at 218,000× g and 5 °C, followed by gradient fractionation and counting. TEXT PRINTED IN THE PICTURE: (A) GγS: Bottom count: 10.8% | (A) U73122: Bottom count: 25.4% | (B) GγS: Bottom count: 8.98 % | (B) U73122: Bottom count: 17.4 %
as §1

The test system of data set [5] is Y2 receptor aggregates (anterior hypothalamus). Kind of data set: Y2 receptor aggregates, sedimentation after treatment, rabbit anterior hypothalamus particulates. Type of data set: biochemical. Conditions: 10 μM, 15 min at 24 °C, 10%–30% gradient 6 h at 218,000× g. The method, then: as §2
Rabbit kidney postmitochondrial particulates, rabbit piriform cortex and hypothalamic crude synaptosomes and CHO cell postnuclear particulates were prepared as described previously. After solubilization of particulates at 10 mM each of digitonin and sodium cholate in buffer A or B, the lysates were spun for 10 min at 1000× g to remove debris, and the supernatants sedimented for periods indicated in figure captions at 218,000× gmax through linear 5%–20% sucrose gradients (10 mL, made in buffer A). The gradients were divided by bottom dripping in 23 fractions of 0.45 mL. […]

For data set [6], the target named is rabbit Y2 receptor, native (rabbit (endogenous in kidney cortex, hypothalamus, piriform cortex)). Kind of data set: radioligand binding; aliquots of gradient fractions of labeled rabbit kidney particulates precipitated with 10% polyethyleneglycol-8000 at 300 mM KCl or KI and 50 μg/mL bovine γ-globulin, 10 min at 0–4 °C.
Another data set has as its system endothelin-1 receptor. Conditions: cited from earlier work. From the text: (§3) The classical view of agonist binding assumes an attachment that is readily terminated by dilution or competition by ligands of higher affinity, such as competitive antagonists. The weak agonist binding for small ligand receptors, such as catecholamine receptors, greatly diminishes analytical options. This has signally contributed to the analytical success of covalent proteinaceous tags. However, many GPCRs with peptidic agonists show agonist attachments that are stable at least at low temperatures, and slow to dissociate even at 37 °C. Such stable (“quasi-irreversible”) binding was found for ...

In data set [7] the target is rabbit Y2 receptor, native (rabbit (endogenous in kidney cortex, hypothalamus, piriform cortex)). Nature of the data set: radioligand binding; competition of PYY(3–36), rabbit kidney particulates after extraction with 8 mM cholate at 0–5 °C (>90% dimeric residue), trypsin up to 3 μg/mL.
Data set [8] shares this target. Nature of the data set: radioligand binding; competition of PYY(3–36) with [125I]PYY(3–36), rabbit kidney particulates, entire receptor complement.
In a further data set the test system is neuromedin U receptors. Conditions: cited from earlier work.
Excerpt: as §3

The test system of the next data set is Y2 receptor. Conditions: cited from earlier work. The text has this:
The classical view of agonist binding assumes an attachment that is readily terminated by dilution or competition by ligands of higher affinity, such as competitive antagonists. The weak agonist binding for small ligand receptors, such as catecholamine receptors, greatly diminishes analytical options.

The test system of a further data set is Y1 receptor. The note with it: cited from earlier work.
Excerpt: as §3

The next data set relates to Y4 receptor. Conditions: cited from earlier work.
Excerpt: as §3

Data set [9] relates to human calcitonin receptor. The note with it: cited from earlier work.
Excerpt: as §3

In data set [10] the test system is rabbit kidney Y2 receptor. Nature of the data set: PYY(3–36) binding to rabbit kidney Y2 receptor (heteropentamer and monomer forms).
Experimental: The receptors were labeled for 30 min at 25 °C in respective particulates (50 μg protein/assay), employing not more than 50 pM [^125I]-labeled agonist peptides (as stated in individual experiments). […] The basal assay buffer contained 0.2% proteinase-free bovine serum albumin, 20 mM hepes.NaOH (pH 7.4), 1 mM diisopropylfluorophosphate, 0.04% bacitracin, and 10 μg/mL each of proteinase inhibitors aprotinin, bestatin, chymostatin, leupeptin and pepstatin. Depending on experiment design, this was supplemented by 3 mM CaCl2 and 1 mM MgCl2, (buffer A) or by 1 mM Na EDTA, pH 7.4 (buffer B). The nucleotide site labeling at 200 pM [^35S]GγS was for 30 min at 28 °C after pre-activation for 30 min at 28 °C at 3 μM GDP in the basal buffer with 50 μM EDTA, 100 mM NaCl and 4 mM MgCl2, and without CaCl2 (buffer C). All subsequent operations were carried out at 0–5 °C. The assays were terminated by sedimentation for 10 min at 30,000× gmax, followed by surface wash of the pellets.
Data set [11] addresses B2. Kind of data set: radioligand binding; competition against [125I]PYY(3–36) at the hY2 receptor; conditions not given. The note with it: one partner purified.
Data set [12] concerns the molecule itself. Nature of the data set: sucrose density gradient centrifugation; CHO-Y2 particulates preincubated in assay buffer at 27 °C (1 h or 3 h) or in ice (3 h), labeled 20 min at 27 °C with [125I]PYY(3–36), solubilised at 10 mM each digitonin and cholate, 5%–20% sucrose gradients, 18 h at 5 °C, 218,000 x gmax.

Regarding `Nc1nc2c(ncn2[C@@H]2O[C@H](COP(=O)(O)OP(=O)(O)O)[C@@H](O)[C@H]2O)c(=O)[nH]1` [GDP], the “conversion of 180 kDa heteropentamer” value in [1] was “does convert to immunoprecipitable 90 kDa Gi3α-receptor monomer”.

As for `[Cl-].[K+]` [KCl], in data set [2] (0.3 M KCl), the “effect on Y2 agonist bound to 90 kDa monomer-Gi α” value was “detached”. Also, in data set [2], the “sensitivity of 180 kDa labeled material to K^+” value was “not sensitive”.

For `[I-].[K+]` [KI], the “sensitivity of 180 kDa labeled material to K^+” value in data set [2] is on record as “not sensitive”.

Consider `COc1ccc2c(c1)CC[C@@H]1[C@@H]2CC[C@]2(C)[C@@H](NCCCCCCN3C(=O)C=CC3=O)CC[C@@H]12` [U73122], for which the “part of aggregated material released” value in data set [3] is on record as “About a third”. In addition, the “main form yielded from Y2 receptor aggregates” value in [4] (particulates from rabbit tissues (kidney and anterior hypothalamus), GγS 20 μM or U73122 10 μM) was “largely the heteropentamer”. In addition, the Bottom count came out at 25.4% in data set [4] (rabbit kidney, 10 μM, 10%–30% gradient 6 h at 218,000× g) and 17.4% in [5].

Regarding `C[C@H](CCC(=O)[O-])[C@H]1CC[C@H]2[C@@H]3[C@H](O)C[C@@H]4C[C@H](O)CC[C@]4(C)[C@H]3C[C@H](O)[C@]12C.[Na+]` [sodium cholate], the “effect on Y2 agonist bound to 90 kDa monomer-Gi α” value in data set [2] (8 mM cholate at 0–5 °C) is “detached”. The “effect of sodium cholate on activated monomers” value in data set [2] (rabbit kidney particulates) is on record as “removes activated monomers”.

The molecule “[125I]human peptide YY(3–36) (from UniProt P10082 31-64)” returned a percent of the 180 kDa labeled material precipitated at 10% PEG in [6] greater than 80%.

As for endothelin, the “stability of agonist binding” value in the data set on endothelin-1 receptor is given as “quasi-irreversible”.

For “human peptide YY(3–36) (from UniProt P10082 31-64)”, the results for the IC50 in [7] and in data set [8] were 0.01 nM and 0.2 to 0.5 nM, respectively.

In the case of “neuromedin U (FRVDEEFQSPFASQSRGYFLFRPRN; ends and bridges not checked; UniProt P48645 142-166, looked up) [agonist at its receptors]”, the “stability of agonist binding” value in the data set on neuromedin U receptors is recorded as “quasi-irreversible”.

As to neuropeptide Y [NPY], the “stability of agonist binding” value with Y2 receptor and in the data set with Y1 receptor was “quasi-irreversible” in each case.

Consider pancreatic polypeptide, for which the “stability of agonist binding” value in the data set with Y4 receptor is reported as “quasi-irreversible”.

In the case of salmon calcitonin, the “stability of agonist binding” value in [9] is “quasi-irreversible”.

On to trypsin, for which the “stability of heteropentamers to trypsin” value in data set [2] (rabbit kidney particulates) is on record as “considerable stability”. Moreover, in data set [10] (above 0.3 μg trypsin), the “Bmax for the dimeric Y2 in the cholate residue” value is “increases significantly”. Further, in data set [10] (trypsin at up to 3 μg/mL, cholate residue), the “effect on affinity of PYY(3–36) binding to dimeric residue” value is given as “unaffected”.

Take B1: the Kd in data set [11] came out at 6.2 ± 1.2 nM.

With B2, the “stoichiometry N” value in [12] came to 2.

As usually defined, the IC50 is the concentration at which inhibition is half-maximal. One may read the Kd as the free concentration of one partner at which half of the binding sites on the other are occupied at equilibrium, for simple one-to-one binding. A low value points to tighter binding. By stoichiometry N is commonly meant the number of molecules, sites or subunits per partner or assembly.
